# Results taken from PubChem BioAssay (NCI).
#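 Method: 48-hour compound exposure of cells in 96-well plates, five concentrations, linear interpolation of endpoints. The concentration for 50% growth inhibition is given as GI50. TGI marks complete inhibition of growth.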
# How the values were obtained:
# Assay in all cases: NCI tumour cell line growth inhibition, 48 h
# [1] = test system: MDA-MB-435
# [2] = test system: MDA-N
# [3] = test system: UACC-62 melanoma
# [4] = test system: HOP-92 NSCLC
# [5] = test system: HCT-15 colon
# [6] = test system: LOX IMVI melanoma
# [7] = test system: SK-MEL-5 melanoma
# [8] = test system: HL-60(TB) leukemia
# [9] = test system: TK-10 renal
# [10] = test system: IGROV1 ovarian
# [11] = test system: HCT-116 colon
# [12] = test system: MDA-MB-231 breast
# [13] = test system: RXF 393 renal
# [14] = test system: CAKI-1 renal
# [15] = test system: PC-3 prostate
# [16] = test system: SK-MEL-2 melanoma
# [17] = test system: NCI-H522 lung
# [18] = test system: A498 renal
# [19] = test system: ACHN renal
# [20] = test system: M14 melanoma
# [21] = test system: OVCAR-4 ovarian
# [22] = test system: OVCAR-8 ovarian
# [23] = test system: NCI-H23 lung
# [24] = test system: HCC-2998 colon
# [25] = test system: SF-295 CNS
# [26] = test system: SNB-19 CNS
# [27] = test system: HOP-62 NSCLC
# [28] = test system: UACC-257 melanoma
# [29] = test system: K-562 leukemia
# [30] = test system: CCRF-CEM leukemia
# [31] = test system: DU-145 prostate
# [32] = test system: SW-620 colon
# [33] = test system: COLO 205 colon
# [34] = test system: U251 CNS
# [35] = test system: T-47D breast
# [36] = test system: SK-OV-3 ovarian
# [37] = test system: MALME-3M melanoma
# [38] = test system: NCI/ADR-RES ovarian
# [39] = test system: KM12 colon
# [40] = test system: NCI-H226 lung
# [41] = test system: MCF7 breast
# [42] = test system: EKVX NSCLC
# [43] = test system: UO-31 renal
# [44] = test system: RPMI-8226 leukemia
# [45] = test system: MOLT-4 leukemia
# [46] = test system: OVCAR-3 ovarian
# [47] = test system: SNB-75 CNS
# [48] = test system: A549 NSCLC
# [49] = test system: HT29 colon
# [50] = test system: SK-MEL-28 melanoma
# [51] = test system: SN12C renal
# [52] = test system: 786-0 renal
# [53] = test system: SF-539 CNS
# [54] = test system: NCI-H460 lung
# [55] = test system: OVCAR-5 ovarian
# [56] = test system: BT-549 breast
# [57] = test system: SF-268 CNS
# [58] = test system: SR leukemia
# [59] = test system: HS 578T breast
compound,measurement,setting,value
CSc1nc(Cl)c(Br)c(Nc2c[nH]c(=O)[nH]c2=O)n1,TGI,[1],83.7 µM
same,TGI,[2],46.9 µM
same,TGI,[3],31.4 µM
same,TGI,[4],31.8 µM
same,TGI,[5],27.6 µM
same,TGI,[6],39.3 µM
same,TGI,[7],42.6 µM
same,TGI,[8],5.47 µM
same,TGI,[9],40 µM
same,TGI,[10],19.9 µM
same,TGI,[11],29.3 µM
same,TGI,[12],30.1 µM
same,TGI,[13],45.4 µM
same,TGI,[14],3.22 µM
same,TGI,[15],45.8 µM
same,TGI,[16],44.4 µM
same,TGI,[17],3.88 µM
same,TGI,[18],35.7 µM
same,TGI,[19],35.5 µM
same,TGI,[20],> 100 µM
same,TGI,[21],37.9 µM
same,TGI,[22],30.4 µM
same,TGI,[23],35.7 µM
same,TGI,[24],42.2 µM
same,TGI,[25],42.6 µM
same,TGI,[26],44.9 µM
same,TGI,[27],53.5 µM
same,TGI,[28],38.7 µM
same,TGI,[29],> 100 µM
same,TGI,[30],49 µM
same,TGI,[31],49.9 µM
same,TGI,[32],> 100 µM
same,TGI,[33],32.9 µM
same,TGI,[34],48.5 µM
same,TGI,[35],40 µM
same,TGI,[36],42.7 µM
same,TGI,[37],43.9 µM
same,TGI,[38],43.3 µM
same,TGI,[39],67.8 µM
same,TGI,[40],41.7 µM
same,TGI,[41],> 100 µM
same,TGI,[42],33.8 µM
same,TGI,[43],37.5 µM
same,TGI,[44],> 100 µM
same,TGI,[45],43.6 µM
same,TGI,[46],40.7 µM
same,TGI,[47],42.7 µM
same,TGI,[48],89.5 µM
same,TGI,[49],29.4 µM
same,TGI,[50],95.8 µM
same,TGI,[51],35.3 µM
same,TGI,[52],27.1 µM
same,TGI,[53],45.2 µM
CCCCNC(=S)/N=C/c1c(O)c2ccccc2oc1=O,TGI,[1],> 100 µM
same,TGI,[54],> 100 µM
same,TGI,[2],> 100 µM
same,TGI,[4],> 100 µM
same,TGI,[5],> 100 µM
same,TGI,[6],> 100 µM
same,TGI,[7],> 100 µM
same,TGI,[9],> 100 µM
same,TGI,[10],> 100 µM
same,TGI,[11],> 100 µM
same,TGI,[12],> 100 µM
same,TGI,[14],> 100 µM
same,TGI,[15],> 100 µM
same,TGI,[16],> 100 µM
same,TGI,[19],> 100 µM
same,TGI,[20],> 100 µM
same,TGI,[21],> 100 µM
same,TGI,[22],> 100 µM
same,TGI,[23],> 100 µM
same,TGI,[24],> 100 µM
same,TGI,[25],> 100 µM
same,TGI,[26],> 100 µM
same,TGI,[27],> 100 µM
same,TGI,[28],> 100 µM
same,TGI,[31],> 100 µM
same,TGI,[32],> 100 µM
same,TGI,[33],> 100 µM
same,TGI,[34],> 100 µM
same,TGI,[35],> 100 µM
same,TGI,[36],> 100 µM
same,TGI,[38],> 100 µM
same,TGI,[39],> 100 µM
same,TGI,[40],> 100 µM
same,TGI,[41],> 100 µM
same,TGI,[42],> 100 µM
same,TGI,[43],> 100 µM
same,TGI,[45],> 100 µM
same,TGI,[46],> 100 µM
same,TGI,[47],> 100 µM
same,TGI,[48],> 100 µM
same,TGI,[49],> 100 µM
same,TGI,[55],> 100 µM
same,TGI,[50],> 100 µM
same,TGI,[51],> 100 µM
same,TGI,[52],> 100 µM
same,TGI,[53],> 100 µM
CN(C)CCCNC(=O)c1cc2c3ccccc3[nH]c2c2ncccc12,GI50,[1],11.1 µM
same,TGI,[1],23.4 µM
same,GI50,[54],6.37 µM
same,TGI,[54],38.6 µM
same,GI50,[3],16 µM
same,TGI,[3],30.1 µM
same,GI50,[4],14.2 µM
same,TGI,[4],57.3 µM
same,GI50,[5],11.6 µM
same,TGI,[5],58.5 µM
same,GI50,[6],8.34 µM
same,TGI,[6],23.8 µM
same,GI50,[7],13.5 µM
same,TGI,[7],26.6 µM
same,GI50,[8],16 µM
same,TGI,[8],41.7 µM
same,GI50,[9],15.5 µM
same,TGI,[9],> 100 µM
same,GI50,[10],10.9 µM
same,TGI,[10],70.9 µM
same,GI50,[11],9.46 µM
same,TGI,[11],49.2 µM
same,GI50,[12],14.4 µM
same,TGI,[12],74.9 µM
same,GI50,[13],13.2 µM
same,TGI,[13],39 µM
same,GI50,[14],7.83 µM
same,TGI,[14],56.5 µM
same,GI50,[15],24.9 µM
same,TGI,[15],> 100 µM
same,GI50,[16],13.8 µM
same,TGI,[16],31.7 µM
same,GI50,[17],14.5 µM
same,TGI,[17],37.7 µM
same,GI50,[18],14.8 µM
same,TGI,[18],31.7 µM
same,GI50,[19],5.23 µM
same,TGI,[19],68.2 µM
same,GI50,[21],21 µM
same,TGI,[21],81.4 µM
same,GI50,[22],12.6 µM
same,TGI,[22],> 100 µM
same,GI50,[23],14.6 µM
same,TGI,[23],29.2 µM
same,GI50,[24],10.8 µM
same,TGI,[24],23.4 µM
same,GI50,[25],7.49 µM
same,TGI,[25],28 µM
same,GI50,[26],17.4 µM
same,TGI,[26],85.3 µM
same,GI50,[27],5.99 µM
same,TGI,[27],36.1 µM
same,GI50,[28],15 µM
same,TGI,[28],32.4 µM
same,GI50,[29],27.6 µM
same,TGI,[29],> 100 µM
same,GI50,[30],4.31 µM
same,TGI,[30],56.4 µM
same,GI50,[31],19.7 µM
same,TGI,[31],> 100 µM
same,GI50,[32],6.34 µM
same,TGI,[32],33.4 µM
same,GI50,[33],4.43 µM
same,TGI,[33],16.6 µM
same,GI50,[34],16.7 µM
same,TGI,[34],70 µM
same,GI50,[35],19.4 µM
same,TGI,[35],61.2 µM
same,GI50,[36],20 µM
same,TGI,[36],> 100 µM
same,GI50,[37],13 µM
same,TGI,[37],27 µM
same,GI50,[38],19.2 µM
same,TGI,[38],66.1 µM
same,GI50,[56],9.33 µM
same,TGI,[56],25.1 µM
same,GI50,[39],19.8 µM
same,TGI,[39],67.3 µM
same,GI50,[40],19.9 µM
same,TGI,[40],> 100 µM
same,GI50,[57],16.7 µM
same,TGI,[57],64.1 µM
same,GI50,[41],14.7 µM
same,TGI,[41],66.8 µM
same,GI50,[42],15.3 µM
same,TGI,[42],85.4 µM
same,GI50,[43],10.9 µM
same,TGI,[43],> 100 µM
same,GI50,[58],14.5 µM
same,TGI,[58],67.1 µM
same,GI50,[59],14.5 µM
same,TGI,[59],38.3 µM
same,GI50,[44],7.42 µM
same,TGI,[44],32.8 µM
same,GI50,[45],8.78 µM
same,TGI,[45],> 100 µM
same,GI50,[46],16.3 µM
same,TGI,[46],54.9 µM
same,GI50,[47],13 µM
same,TGI,[47],33.8 µM
same,GI50,[48],14.1 µM
same,TGI,[48],> 100 µM
same,GI50,[49],10.3 µM
same,TGI,[49],50.4 µM
same,GI50,[55],20.3 µM
same,TGI,[55],> 100 µM
same,GI50,[50],14.3 µM
same,TGI,[50],31.1 µM
same,GI50,[51],15.6 µM
same,TGI,[51],> 100 µM
same,GI50,[52],11.7 µM
same,TGI,[52],42.4 µM
same,GI50,[53],10.8 µM
same,TGI,[53],23.4 µM
